Source: ChEMBL document CHEMBL1240404, “Rapamycin protects mice from staphylococcal enterotoxin B-induced toxic shock and blocks cytokine release in vitro and in vivo” (Antimicrob Agents Chemother, 2010)
Calls of active or inactive are those of the source. The rule behind the calls is not given here.

What was measured:
Mus musculus [1] = test: Protection against SEB-induced toxicity in C3H/HeJ mouse assessed as lethality at 1.2 mg/kg, in administered at 5 hrs after SEB challenge followed by 5 mg/kg, ip infusion after 24 to 96 hrs of SEB exposure; format: functional
PBMC [2] = test: cells; format: functional; conditions: Homo sapiens, 48 h
PBMC [3] = test: cells; format: functional; conditions: Homo sapiens, 48 h; remark: listed apart in the source
PBMC [4] = test: cells; format: functional; conditions: Homo sapiens, 48 h; remark: listed apart in the source
PBMC [5] = test: cells; format: functional; conditions: Homo sapiens, 48 h; remark: listed apart in the source
PBMC [6] = test: cells; format: functional; conditions: Homo sapiens, 48 h; remark: listed apart in the source
PBMC [7] = test: cells; format: functional; conditions: Homo sapiens, 48 h; remark: listed apart in the source
PBMC [8] = test: cells; format: functional; conditions: Homo sapiens, 48 h; remark: listed apart in the source
PBMC [9] = test: Inhibition of SEB-induced proliferation of human PBMC after 48 hrs by [3H]thymidine incorporation assay; format: functional, cell-based
PBMC [10] = test: Inhibition of SEB-induced proliferation of human PBMC at 6.9 ug/ml after 48 hrs by [3H]thymidine incorporation assay; format: functional
PBMC [11] = test: Inhibition of SEB-induced proliferation of human PBMC at 0.69 ug/ml after 48 hrs by [3H]thymidine incorporation assay; format: functional
PBMC [12] = test: Inhibition of SEB-induced proliferation of human PBMC at 6.9 ug/ml after 3 hrs by [3H]thymidine incorporation assay; format: functional
Mus musculus [13] = test: Protection against SEB-induced toxicity in C3H/HeJ mouse assessed as survival rate at 0.7 mg/kg, in administered at 5 hrs after SEB challenge followed by 1.6 mg/kg, ip infusion after 24 to 96 hrs of SEB exposure; format: functional
Mus musculus [14] = test: Protection against SEB-induced toxicity in C3H/HeJ mouse assessed as survival rate at 0.7 mg/kg, in administered at 3 hrs after SEB challenge followed by 1.6 mg/kg, ip infusion after 24 to 96 hrs of SEB exposure; format: functional
Mus musculus [15] = test: Protection against SEB-induced toxicity in C3H/HeJ mouse assessed as survival rate at 0.7 mg/kg, in administered at 4 hrs after SEB challenge followed by 1.6 mg/kg, ip infusion after 24 to 96 hrs of SEB exposure; format: functional
Mus musculus [16] = test: Protection against SEB-induced toxicity in C3H/HeJ mouse assessed as survival rate at 0.7 mg/kg, in administered at 2 hrs after SEB challenge followed by 1.6 mg/kg, ip infusion after 24 to 96 hrs of SEB exposure; format: functional
Mus musculus [17] = test: Protection against SEB-induced toxicity in C3H/HeJ mouse assessed as attenuation of hypothermic response at 0.7 mg/kg, in administered at 5 hrs after SEB challenge; format: functional, organism-based; set-up: dose 0.7 mg/kg
Mus musculus [18] = test: Protection against SEB-induced toxicity in C3H/HeJ mouse assessed as attenuation of hypothermic response at 0.7 mg/kg, in administered at 24 hrs after SEB challenge followed by 1.6 mg/kg, ip infusion after 30 to 96 hrs of SEB exposure; format: functional, organism-based
Mus musculus [19] = test: Protection against SEB-induced toxicity in C3H/HeJ mouse assessed as attenuation of hypothermic response at 0.7 mg/kg, in administered at 42 hrs after SEB challenge followed by 1.6 mg/kg, ip infusion after 30 to 96 hrs of SEB exposure; format: functional
Mus musculus [20] = test: Inhibition of SEB-induced weight loss in C3H/HeJ mouse assessed as weight gain at 0.7 mg/kg, in measured after 150 hrs of SEB challenge; format: functional
Mus musculus [21] = test: Inhibition of SEB-induced weight loss in C3H/HeJ mouse assessed as weight gain at 0.7 mg/kg, in administered at 24 hrs after SEB challenge followed by 1.6 mg/kg, ip infusion after 30 to 96 hrs of SEB exposure; format: functional, organism-based
[22] = Drug level in C3H/HeJ mouse blood at 0.7 mg/kg, in after 1 hr; format: ADME, organism-based; set-up: dose 0.7 mg/kg; conditions: inhaled or intranasal, read-out: Drug uptake
[23] = Drug level in C3H/HeJ mouse blood at 0.7 mg/kg, in administered at 2 and 5 hrs followed by 1.6 mg/kg, ip infusion at 30, 48, 72 and 96 hrs measured at 97 hrs; format: ADME, organism-based; conditions: read-out: Drug uptake
[24] = Drug level in C3H/HeJ mouse blood at 0.03 mg/kg, in administered at 2 and 5 hrs followed by 0.08 mg/kg, ip infusion at 30, 48, 72 and 96 hrs measured at 97 hrs; format: ADME, organism-based; conditions: read-out: Drug uptake
Mus musculus [25] = test: Antiinflammatory activity in C3H/HeJ mouse assessed as reduction in SEB-induced increase in serum IL-6 level at 0.7 mg/kg, in after 24 hrs; format: functional, organism-based; set-up: dose 0.7 mg/kg
Mus musculus [26] = test: Antiinflammatory activity in C3H/HeJ mouse assessed as reduction in SEB-induced increase in serum IL-6 level at 0.7 mg/kg, in after 51 hrs; format: functional, organism-based; set-up: dose 0.7 mg/kg
Mus musculus [27] = test: Antiinflammatory activity in C3H/HeJ mouse assessed as reduction in SEB-induced increase in serum IL-6 level at 0.7 mg/kg, in after 75 hrs; format: functional, organism-based; set-up: dose 0.7 mg/kg
Mus musculus [28] = test: Antiinflammatory activity in C3H/HeJ mouse assessed as reduction in SEB-induced increase in serum IL-6 level at 0.7 mg/kg, in after 5 hrs; format: functional, organism-based; set-up: dose 0.7 mg/kg
PBMC [29] = test: Cytotoxicity against human PBMC at 10 ug/ml after 48 hrs by [3H]thymidine incorporation assay; format: cell-based
Mus musculus [30] = test: Protection against SEB-induced toxicity in C3H/HeJ mouse assessed as appearance of ruffled fur and lethargy at 0.7 mg/kg, in administered at 72 hrs after SEB challenge followed by 1.6 mg/kg, ip infusion after 30 to 96 hrs of SEB exposure; format: functional, organism-based
Mus musculus [31] = test: Protection against SEB-induced toxicity in C3H/HeJ mouse assessed as survival rate at 1.2 mg/kg, in administered at 2 hrs after SEB challenge followed by 5 mg/kg, ip infusion after 24 to 96 hrs of SEB exposure; format: functional
Mus musculus [32] = test: Protection against SEB-induced toxicity in C3H/HeJ mouse assessed as survival rate at 1.2 mg/kg, in administered at 5 hrs after SEB challenge followed by 5 mg/kg, ip infusion after 24 to 96 hrs of SEB exposure; format: functional

## C[C@@H]1C[C@H]2[C@@H]3CCC4=CC(=O)C=C[C@]4(C)[C@@]3(F)[C@@H](O)C[C@]2(C)[C@@]1(O)C(=O)CO [DEXAMETHASONE]
Mus musculus [1]
  Activity: 90%

## CO[C@H]1C[C@@H]2CC[C@@H](C)[C@@](O)(O2)C(=O)C(=O)N2CCCC[C@H]2C(=O)O[C@H]([C@H](C)C[C@@H]2CC[C@@H](O)[C@H](OC)C2)CC(=O)[C@H](C)/C=C(\C)[C@@H](O)[C@@H](OC)C(=O)[C@H](C)C[C@H](C)/C=C/C=C/C=C/1C [SIROLIMUS]
PBMC [2]
  inhibition at 6.9 µg/mL: 77%
PBMC [3]
  inhibition at 6.9 µg/mL: 97%
PBMC [4]
  inhibition at 6.9 µg/mL: 67%
PBMC [5]
  inhibition at 6.9 µg/mL: 100%
PBMC [6]
  inhibition at 6.9 µg/mL: 100%
PBMC [7]
  inhibition at 0.0069 µg/mL: 34%
PBMC [8]
  inhibition at 0.0069 µg/mL: 36%
PBMC [9]
  inhibition: Dose-dependent effect
PBMC [10]
  inhibition at 6.9 µg/mL: 94%
PBMC [11]
  inhibition at 0.69 µg/mL: 56%
PBMC [12]
  inhibition at 6.9 µg/mL: 40%
Mus musculus [13]
  Activity: 100%
Mus musculus [14]
  Activity: 100%
Mus musculus [15]
  Activity: 100%
Mus musculus [16]
  Activity: 100%
Mus musculus [17]
  Activity: Active
Mus musculus [18]
  Activity: Active
Mus musculus [19]
  Activity: 20%
Mus musculus [20]
  inhibition in vivo at 0.7 mg/kg: 8%
Mus musculus [21]
  inhibition: Active
[22]
  concentration at 1 h: 492 ng/mL
[23]
  concentration at 97 h: 622 ng/mL
[24]
  concentration at 97 h: 38 ng/mL
Mus musculus [25]
  inhibition: Active
Mus musculus [26]
  inhibition: Active
Mus musculus [27]
  inhibition: Active
Mus musculus [28]
  inhibition: inactive
PBMC [29]
  Activity: Non-toxic
Mus musculus [30]
  Activity: Active
Mus musculus [31]
  Activity: 100%
Mus musculus [32]
  Activity: 10%
